The results in this text go back to patent US20230416203A1, “POTENT AND SELECTIVE INHIBITORS OF THE CALCIUM-ACTIVATED POTASSIUM CHANNEL, KCA3.1, FOR USE AS PLATFORM THERAPEUTICS” (priority 2020, published 2023).

pIC50: −log10 of the molar value. Values after ≈ are worked out from the molar mass of the structure shown. “Also recorded” adds a separate entry of the source.

One series concerns the target T1, KV4.2 (Rattus norvegicus, UniProt Q63881).
T1 construct: expressed in transfected cells; host or cells: LTK
T1 sequence (Q63881 1-630): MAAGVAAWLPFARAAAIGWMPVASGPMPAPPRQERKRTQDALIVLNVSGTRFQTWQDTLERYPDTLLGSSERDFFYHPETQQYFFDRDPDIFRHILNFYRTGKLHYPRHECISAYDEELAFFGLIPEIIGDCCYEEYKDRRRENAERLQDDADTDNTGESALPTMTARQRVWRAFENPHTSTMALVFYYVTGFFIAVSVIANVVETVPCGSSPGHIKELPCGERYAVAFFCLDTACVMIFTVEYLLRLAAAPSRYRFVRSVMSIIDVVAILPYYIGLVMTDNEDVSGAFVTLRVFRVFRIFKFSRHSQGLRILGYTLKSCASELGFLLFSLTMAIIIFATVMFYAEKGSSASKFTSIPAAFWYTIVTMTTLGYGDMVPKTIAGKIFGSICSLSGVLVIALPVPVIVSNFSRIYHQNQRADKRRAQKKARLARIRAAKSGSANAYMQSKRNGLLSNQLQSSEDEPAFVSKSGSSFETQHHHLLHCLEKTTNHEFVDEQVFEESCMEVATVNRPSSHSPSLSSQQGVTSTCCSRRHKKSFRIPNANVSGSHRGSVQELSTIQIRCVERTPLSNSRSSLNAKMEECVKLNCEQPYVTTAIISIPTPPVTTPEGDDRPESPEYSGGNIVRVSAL
In words: Potassium channels patch-clamp (QPatch), KV4.2. Format: cell-based. The method, then: (§1) The effects of Group 4 compounds on related potassium channels were evaluated by patch-clamp using a QPatch HTX automated electrophysiology platform (Sophion, Denmark). The giga-seal and whole-cell requirements for the automated electrophysiology were the following: minimum seal resistance=0.1 GO, holding potential=−80 mV, holding pressure=−20 mbar; and positioning pressure=−70 mbar.
(The patch-clamp technique gives a direct electrical read-out from membranes.)

The target in a further series is CaV1.2 channel (Homo sapiens, UniProt Q13936). In words: cell-based.
Series [1] is described as follows: Plasma and brain distribution studies.
Description: The dosing volume for intraperitoneal administration was 5 mL/kg. Following blood collection, the animals were sacrificed, and their abdominal vena-cava were cut open and whole body were perfused from heart using 10 mL normal saline. The brain samples were collected from a set of three mice at 0.08, 0.25, 0.5, 1, 2, 4, 8 and 10 h. After isolation, the brain samples were rinsed thrice in ice cold normal saline (for 5-10 s/rinse using ˜10-20 mL normal saline in disposable petri dish for each rinse) and dried on blotting paper. The brain samples were homogenized using ice-cold phosphate buffer saline (pH=7.4). The total homogenate volume was three times the tissue weight. All homogenates were stored below −70° C. until bioanalysis. […] Non-Compartmental-Analysis tool of Phoenix WinNonlin® (Version 8.0) was used to assess the pharmacokinetic parameters.
Series [2] in a line: Solubility test (PBS, HPLC-UV). Conditions: kinetic from dmso stock. Format: physicochemical. The method, then: Calibration standards at 1, 5, 10, 50, 100, 200 and 300 μM were prepared in DMSO from a 20 mM stock. […] The plate was covered and shook at 150 rotations per min for 90 min. At the end of 90 min, samples were filtered using MultiScreen HTS vacuum Manifold assembly and the filtrate was collected onto the acceptor plate. An aliquot (150 μL) of the filtrate from the above 96-well acceptor plate was transferred into HPLC vials and analyzed by HPLC-UV. Verapamil, ketoconazole and reserpine were used as high, medium and low soluble reference standards respectively.

Series [3] deals with middle cerebral artery occlusion (MCAO). In words: MCAO ischemia-reperfusion model, infarct volume (TTC staining). The series is classed as in vivo, SD male rats.
For the next series, the target named is T2, KV3.1 (Mus musculus, UniProt P15388).
T2 construct: expressed in transfected cells; host or cells: L929
T2 sequence (P15388 1-511): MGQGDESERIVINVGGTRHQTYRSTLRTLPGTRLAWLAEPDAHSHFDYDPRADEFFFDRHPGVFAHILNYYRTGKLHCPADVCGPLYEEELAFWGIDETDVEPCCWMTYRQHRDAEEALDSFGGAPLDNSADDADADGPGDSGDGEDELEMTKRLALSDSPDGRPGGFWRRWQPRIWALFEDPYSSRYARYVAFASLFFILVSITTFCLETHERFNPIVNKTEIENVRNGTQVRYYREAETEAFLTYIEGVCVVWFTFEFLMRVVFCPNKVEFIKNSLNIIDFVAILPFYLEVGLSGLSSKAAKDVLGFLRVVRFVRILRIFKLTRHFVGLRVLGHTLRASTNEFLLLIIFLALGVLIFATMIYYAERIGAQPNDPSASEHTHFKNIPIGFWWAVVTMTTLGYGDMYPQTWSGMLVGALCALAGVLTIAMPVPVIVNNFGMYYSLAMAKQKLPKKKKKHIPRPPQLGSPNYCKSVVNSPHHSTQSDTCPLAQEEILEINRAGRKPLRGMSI
Put plainly: Potassium channels patch-clamp (QPatch), KV3.1. The series is classed as cell-based. As for the experimental part: as §1

Series [4] can be described thus: Plasma protein binding assay (equilibrium dialysis), mouse plasma. The series is classed as in vitro ADME. The settings on record: pH 7.4. As for the experimental part: (§2) Human and mouse plasma (150 μL) containing test compound (3 μM, final concentration) and sodium phosphate buffer (150 μL, 100 mM, pH 7.4) were added to the equilibrium dialysis device and equilibrated at 37° C. for 4.5 h with constant shaking. After equilibration, 10 μL of the plasma was taken out from the first half of the well and mixed with 50 μL of blank buffer, and later quenched with 200 μL of 0.05% formic acid in ACN containing 100 ng/mL of Loperamide, Phenacetin & Tolbutamide as internal standards. Similarly, 50 μL of […] was taken from the second half of the well and mixed with 10 μL of blank […] before quenching. […] All samples were centrifuged at 14,000 rpm for 5 min at 4° C. Warfarin and naltrexone were used as positive controls. Supernatant of all samples were analyzed by LC-MS/MS.
In general terms: In equilibrium dialysis free small molecules cross a membrane that holds back macromolecules.

In a further series the target is T3, KCa2.3 (Homo sapiens, UniProt Q9UGI6).
T3 construct: expressed in transfected cells; host or cells: COS7
In words: Potassium channels patch-clamp (QPatch), KCa2.3. Format: cell-based. As for the experimental part: as §1

A short description of series [5]: Plasma protein binding assay (equilibrium dialysis), human plasma. The series is classed as in vitro ADME. Conditions: pH 7.4. The method, then:
as §2

Setting [6] is: male, C57BL/6, mouse, brain, ip, 50 mg/kg.
Setting [7] is: male, C57BL/6, mouse, plasma, ip, 50 mg/kg.

Sequence of CaV1.2 channel (Q13936 whole entry): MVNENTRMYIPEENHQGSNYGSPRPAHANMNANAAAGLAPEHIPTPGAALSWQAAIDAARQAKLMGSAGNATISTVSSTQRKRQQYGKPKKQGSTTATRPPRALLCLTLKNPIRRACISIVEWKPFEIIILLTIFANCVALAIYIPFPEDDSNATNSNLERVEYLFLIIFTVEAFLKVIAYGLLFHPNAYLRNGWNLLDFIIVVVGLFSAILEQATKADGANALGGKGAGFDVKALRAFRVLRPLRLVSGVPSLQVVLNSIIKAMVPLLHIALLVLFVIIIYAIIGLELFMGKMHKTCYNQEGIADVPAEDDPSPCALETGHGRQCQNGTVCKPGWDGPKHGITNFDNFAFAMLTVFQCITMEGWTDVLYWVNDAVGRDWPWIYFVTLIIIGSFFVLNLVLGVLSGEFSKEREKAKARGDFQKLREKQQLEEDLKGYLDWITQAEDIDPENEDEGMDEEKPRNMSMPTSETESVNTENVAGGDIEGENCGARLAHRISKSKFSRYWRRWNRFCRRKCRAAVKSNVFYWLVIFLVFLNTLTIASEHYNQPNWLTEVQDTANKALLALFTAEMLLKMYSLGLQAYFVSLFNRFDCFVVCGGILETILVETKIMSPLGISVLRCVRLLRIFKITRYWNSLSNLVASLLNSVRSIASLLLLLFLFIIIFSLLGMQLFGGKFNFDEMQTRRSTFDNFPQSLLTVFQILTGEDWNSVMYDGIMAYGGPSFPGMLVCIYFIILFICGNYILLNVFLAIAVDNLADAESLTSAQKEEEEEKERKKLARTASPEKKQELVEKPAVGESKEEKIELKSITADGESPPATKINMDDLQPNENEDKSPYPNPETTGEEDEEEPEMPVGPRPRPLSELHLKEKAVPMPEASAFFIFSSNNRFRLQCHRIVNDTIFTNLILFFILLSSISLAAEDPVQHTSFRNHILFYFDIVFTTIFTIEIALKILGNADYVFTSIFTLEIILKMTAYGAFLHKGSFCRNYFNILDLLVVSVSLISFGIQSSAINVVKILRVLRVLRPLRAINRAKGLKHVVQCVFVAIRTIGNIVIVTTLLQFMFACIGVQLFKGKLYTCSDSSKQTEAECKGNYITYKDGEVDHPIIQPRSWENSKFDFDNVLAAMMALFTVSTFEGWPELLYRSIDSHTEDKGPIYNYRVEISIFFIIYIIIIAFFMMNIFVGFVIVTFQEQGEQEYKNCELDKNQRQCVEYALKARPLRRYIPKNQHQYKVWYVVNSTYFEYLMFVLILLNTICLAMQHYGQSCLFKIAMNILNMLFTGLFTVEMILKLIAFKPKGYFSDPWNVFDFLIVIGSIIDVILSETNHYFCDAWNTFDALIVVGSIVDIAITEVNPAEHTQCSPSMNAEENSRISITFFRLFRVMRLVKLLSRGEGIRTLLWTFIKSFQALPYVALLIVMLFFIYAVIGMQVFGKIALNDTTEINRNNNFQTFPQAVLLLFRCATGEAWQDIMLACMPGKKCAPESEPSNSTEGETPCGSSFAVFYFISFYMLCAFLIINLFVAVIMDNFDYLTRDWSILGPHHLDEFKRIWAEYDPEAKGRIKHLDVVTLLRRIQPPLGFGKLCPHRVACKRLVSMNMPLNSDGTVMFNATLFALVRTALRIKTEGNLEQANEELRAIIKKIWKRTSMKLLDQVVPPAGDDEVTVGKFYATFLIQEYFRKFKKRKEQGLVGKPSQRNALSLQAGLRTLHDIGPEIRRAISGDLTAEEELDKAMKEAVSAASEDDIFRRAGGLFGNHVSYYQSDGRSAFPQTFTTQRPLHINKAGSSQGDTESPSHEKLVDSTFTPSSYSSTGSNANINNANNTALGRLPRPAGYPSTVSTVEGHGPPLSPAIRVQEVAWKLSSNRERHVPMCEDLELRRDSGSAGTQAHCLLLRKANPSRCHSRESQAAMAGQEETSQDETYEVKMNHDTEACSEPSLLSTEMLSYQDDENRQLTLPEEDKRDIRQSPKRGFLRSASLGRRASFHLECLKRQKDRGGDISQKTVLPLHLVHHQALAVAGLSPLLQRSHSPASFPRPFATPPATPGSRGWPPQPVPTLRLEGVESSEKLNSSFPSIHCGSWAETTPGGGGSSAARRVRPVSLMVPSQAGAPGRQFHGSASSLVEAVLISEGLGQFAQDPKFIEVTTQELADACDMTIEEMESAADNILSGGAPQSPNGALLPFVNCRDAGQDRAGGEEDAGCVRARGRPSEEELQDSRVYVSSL
T3 sequence (Q9UGI6 whole entry): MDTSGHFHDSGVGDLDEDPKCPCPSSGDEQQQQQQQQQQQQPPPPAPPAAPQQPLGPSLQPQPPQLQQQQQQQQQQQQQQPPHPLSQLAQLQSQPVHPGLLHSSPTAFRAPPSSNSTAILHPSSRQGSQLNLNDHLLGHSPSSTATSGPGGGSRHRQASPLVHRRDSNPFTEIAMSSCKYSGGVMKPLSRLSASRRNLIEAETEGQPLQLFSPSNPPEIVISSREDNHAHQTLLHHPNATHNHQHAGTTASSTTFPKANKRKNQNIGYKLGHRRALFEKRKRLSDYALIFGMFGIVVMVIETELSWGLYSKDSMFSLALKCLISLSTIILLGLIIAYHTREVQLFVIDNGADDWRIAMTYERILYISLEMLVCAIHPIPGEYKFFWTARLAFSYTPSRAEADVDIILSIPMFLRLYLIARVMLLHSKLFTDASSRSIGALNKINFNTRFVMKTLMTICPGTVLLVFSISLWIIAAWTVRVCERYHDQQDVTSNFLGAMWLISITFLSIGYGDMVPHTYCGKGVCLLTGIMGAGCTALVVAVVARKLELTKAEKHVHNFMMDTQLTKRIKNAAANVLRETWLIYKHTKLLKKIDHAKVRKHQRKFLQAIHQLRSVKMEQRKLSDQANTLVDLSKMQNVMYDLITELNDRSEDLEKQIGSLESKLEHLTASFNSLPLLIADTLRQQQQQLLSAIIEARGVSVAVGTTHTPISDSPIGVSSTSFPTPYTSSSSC
Description for CaV1.2 channel: The external solution contained (in mM): 140 TEA-Cl; 2 MgCl2; 10 CaCl2; 10 HEPES; and 5 D-glucose (pH=7.4). The internal solution contained (in mM): 120 CsCl; 1 MgCl2; 10 HEPES; 10 EGTA; 0.3 Na2-GTP; and 4 Mg-ATP (pH=7.2). Following establishment of the whole-cell configuration, CaV1.2 current was recorded at holding membrane potential of −80 mV and then depolarized to +10 mV (test pulse was modified slightly due to lead IV test) for 0.3 s. This protocol was repeated at 20 s intervals to observe the effect of the test compounds on the peak of CaV1.2 current. Each cell was incubated with each test compound for 5 min, or until the current reached steady-state. The compounds were applied at multiple concentrations from low to high. Each cell acted as its own control. The decreases in the peak currents were used to determine the IC50 for CaV1.2 inhibition. Curve-fitting and IC50 calculations were performed using IGOR software.

As usually defined, the pIC50 is the IC50 on a negative log10 scale, so that one unit is a factor of ten. Read a low pIC50 as a large IC50. As usually defined, the Cmax is the highest concentration seen after dosing. The MRT last is the average time that molecules of a dose stay in the body. As a reminder, the Tmax is the time from dosing to the highest level. The term half-life denotes the time in which the quantity being followed falls by half. A word on the AUC(0-t): it is exposure summed from dosing to a finite time, without extrapolation to infinity. Broadly, the solubility is how much of the substance goes into solution per volume. Take `COC(=O)C1=CNC=C(C(=O)OC)C1c1ccc(F)c(C(F)(F)F)c1` [Compound 103, Dimethyl 4-(4-fluoro-3-(trifluoromethyl)phenyl)-1,4-dihydropyridine-3,5-dicarboxylate]: the figures for the pIC50 at KV4.2, against CaV1.2 channel and against KV3.1 were less than 5.00, 4.87 and less than 5.00, respectively. In series [1] (Brain, IP 50 mg/kg, mice), this molecule had an AUClast of 88658.12 ng·h/g. In addition, the Cmax in [1] (setting [6]) was 26800 ng/g; in [1] (setting [7]) it was 8540 ng/mL. The MRT last in series [1] (setting [6]) is 2.09 h; in series [1] (setting [7]), 2.02 h. In addition, the Tmax in series [1] (setting [6]) and in series [1] (setting [7]) was 0.25 h throughout. In addition, the values for the half-life in series [1] (setting [6]) and in series [1] (setting [7]) were 1.06 h and 1.63 h, respectively. Further, the area under the curve AUC(0-t) in [1] (setting [7]) is 20000 ng·h/mL. For the same molecule, the solubility at 90 min is 54.6 µM (≈ 19.6 µg/mL) in series [2] (pH 1.5, aqueous buffer, PBS pH 1.5); 58.1 µM (≈ 20.9 µg/mL) in series [2] (pH 5, aqueous buffer, PBS pH 5.0); not above 87.4 µM in series [2] (pH 7.4, aqueous buffer, PBS pH 7.4). The “reduction of infarct volume” value in series [3] (10 mg/kg intraperitoneal twice daily, 7 days, rat MCAO) is recorded as approximately 50%. For the same molecule, the infarct volume result in series [3] (rat MCAO 60 min, 7 days reperfusion, vs vehicle and Edaravone 5 mg/kg) is “more effective than Edaravone; also recorded: effectively reduced infarct volume”.
What is called fraction unbound is free concentration divided by total concentration. The low end stands for little free substance, the high end for much free substance. For `COC(=O)C1=C(C)NC(C)=C(C(=O)OC)C1c1ccc(F)c(C(F)(F)F)c1` [Compound 101], the negative-log IC50 (pIC50) against KV4.2 is less than 5.00; at CaV1.2 channel it was 5.49; against KCa2.3, 5.10; against KV3.1, less than 5.00. For the same molecule, the fraction unbound at 4.5 h, 3 μM in series [4] is 0.0088; in [5], 0.0073.
